Patent US20220409696A1, “Heparin-Associated Polypeptides and Uses Thereof” (Juvena Therapeutics, Inc., priority 2021, published 2022)

Assays:
human myoblast cells = test: Human myoblast differentiation (% eMyHC area), IGF2 and/or sodium butyrate; format: cell-based; conditions: IGF2 0.015 ug/mL, 96 h (FIG. 3B/3C)
Procedure: Human myoblast cells were treated with either PBS (vehicle), IGF2 (15 ng/mL), sodium butyrate, or IGF2 and sodium butyrate. Fresh media was added every 24 hours. After 96 hours, cells were pulsed for 2-5 hours with EdU (30 uM), ethanol fixed, stained with Hoescht 3342, immunostained for proliferation—as measured by the percent of cells staining positive for EdU (% EdU)-, and immunostained for differentiation—as measured by the increase in cellular area staining positive for embryonic myosin heavy chain (% eMyHC) relative to the negative controls, which received media and vehicle only. The total area of eMyHc positive cells was analyzed, and treated cells were compared to cells treated with the vehicle alone. […] Significance was determined by a p-value less than 0.05 by the one-way ANOVA Tukey Honest Significant Difference test.
FIG. 3C Bar graph quantitation of % Area eMyHC+ human myoblast in response to indicated treatment compared to IGF2 (15 ng/mL). Myoblast were cultured 96 h in the presence of IGF2 at indicated dose. Fresh media and IGF2 was added every 24 h.
Human myoblast cells were treated with either PBS (vehicle), IGF2 (15 ng/mL), sodium butyrate, or IGF2 and sodium butyrate. Fresh media was added every 24 hours. After 48 hours, cells were pulsed for 2-5 hours with EdU (30 uM), ethanol fixed, stained with Hoescht 3342, immunostained for proliferation […] as measured by the percent of cells staining positive for EdU (% EdU)-, and immunostained for differentiation—as measured by the increase in cellular area staining positive for embryonic myosin heavy chain (% eMyHC) relative to the negative controls, which received media and vehicle only.
Significance was determined by a p-value less than 0.05 by the one-way ANOVA Tukey Honest Significant Difference test.

DM1 human myoblast cells [1] = test: Proliferation (EdU) of DM1 human myoblast; format: cell-based; conditions: 72 h for proliferation
Procedure: (§1) FIG. 7A Bar graph of % EdU+ human myoblast (person) and FIG. 7B % area MyHC in response to IGF2. Myoblast were cultured 72 h for proliferation and 96 h for fusion in the presence of indicated factor. Mean∓S.D. Mean∓SD. Significant p-values (EdU: Vehicle˜IGF2: 6.8E-3, % eMyHC Area: Vehicle˜IGF2: 1.9E-4) (*p<0.05 by Students Two-Tailed T-test, n=3−6).
(§2) IGF2 was tested individually for its ability to promote proliferation and/or fusion of human muscle progenitor cells from an individual with myotonic dystrophy type 1 (hMD)—a muscular dystrophy caused by mutations in the DMPK1 gene. […] After 72 or 96 hours, cells were pulsed for 2-5 hours with EdU (30 uM), ethanol fixed, stained with Hoescht 3342, immunostained for proliferation—as measured by the percent of cells staining positive for EdU (% EdU)-, and immunostained for differentiation—as measured by the increase in cellular area staining positive for embryonic myosin heavy chain (% eMyHC) relative to the negative controls, which received media and vehicle only. Wells were imaged on a Keyence BZ-100 at 4×, the images quantified in Cell Profiler, and the statistics were computed in R. Additionally, RNA was extracted from myoblast and select transcript abundances quantified by qPCR. […]

DM1 human myoblast cells [2] = test: Fusion (% eMyHC area) of DM1 human myoblast; format: cell-based; conditions: 96 h for fusion
Procedure: as §1, §2

[3] = tested on: 10 week old dystrophic mice (mdx); test: D2-mdx Duchenne's muscular dystrophy model, 10 week old mice; format: in vivo; conditions: 150 ug/kg with 1.2 g/kg sodium butyrate subcutaneously every 24 hours, 14 days
Procedure: Between 3-6 weeks old, the skeletal muscle of mdx mice undergoes severe necrosis followed by an increase in the activation of satellite cells to promote muscle regeneration. Treatment with IGF2 fusion polypeptide described herein can improve the regeneration process and therefore muscle health. Mice were fed ad libitum and housed under controlled conditions of lighting (12-hour light/12-hour dark) and temperature (22-24° C.). Mice were allowed to acclimate for 3 days prior to the initiation of the experiment. During the acclimation period, the weight, forelimb and both limb grip strength as well as in vivo tetanic force were assessed to determine the baseline strength of each mouse. 10 week old dystrophic mice (mdx) were injected with the IGF2 fusion polypeptide with sodium butyrate subcutaneously for 14 days. At day 7, forelimb and both grip strength are measured as described in Example 4. BrdU was injected on days 12, 13 and 14. On days 13, 14 and 15, forelimb and both limb grip strength and in vivo tetanic force were tested, and an endurance test to determine max distance and max speed was performed using methods described in Example 4.
Mice were euthanized. The right tibialis anterior and gastrocnemius were collected, immersed in Tissue-TEK OCT and then flash frozen in a chilled isopentane bath precooled in liquid nitrogen and stored at −80° C. Tissue was sectioned and stained for Laminin to determine the cross sectional area (CSA) of muscle fibers, for eMyHC to measure new fiber formation and for BrdU to assess the proliferation rate. The left anterior tibialis and gastrocnemius were collected and flash frozen in liquid nitrogen for molecular analysis that include qPCR and western blot.

[4] = target: Insulin Degrading Enzyme (IDE) (Homo sapiens, UniProt P14735); conditions: Malito et al. Cell Mol Life Sci. 2008; read-out: affinity of IDE for IGF2 as a substrate; cited from earlier work

## IGF2: Human IGF2 polypeptide, amino acids 25 to 91 of SEQ ID NO. 32 (i.e. SEQ ID NO. 29)
Human myoblast cells
  % eMyHC: 10.843%
DM1 human myoblast cells [1]
  EdU FC: 2.18
DM1 human myoblast cells [2]
  % eMyHC area: 5.49%
[3]
  bothlimb grip strength: effective at improving
  forelimb grip strength: effective at improving
  muscle weight: effective at improving
  total work: effective at improving
  treadmill running distance: effective at improving
  treadmill running time to exhaustion: effective at improving
[4]
  Kd: ~100 nM
